These results are taken from patent publication EP0908457B1, “3-(1,2-benzisothiazol- and isoxazol-5-Y1)-2,4(1H,3H)-pyrimidinedione or thione and 3-(1,2-benzisothiazol- and isoxazol-5-y1)-4(3H)-pyrimidinone or thione herbicidal agents” (BASF AKTIENGESELLSCHAFT, priority 1997, dated 1999).

For data set [1], the system named is Echinochloa oryzoides (Ard.) Fritsch. The experiment in a line: Preemergence weed control under flooded paddy conditions, ECHORC (Watergrass (Calif.)). The format is in vivo. The following applies: preemergence, flooded paddy; for ECHORC herbicidal rating: rated three to four weeks after treatment; for herbicidal effect rating, ECHORC: rated 3-4 weeks after treatment.

Data set [2] has as its system Monochoria vaginalis, Presl. Nature of the data set: Preemergence weed control under flooded paddy conditions, MOOVA (Monochoria). It is filed as in vivo. Conditions: preemergence, flooded paddy; for MOOVA herbicidal rating: rated three to four weeks after treatment; for herbicidal effect rating, MOOVA: rated 3-4 weeks after treatment.
In the next data set the test system is Sagittaria pygmaea, L. Nature of the data set: Preemergence weed control under flooded paddy conditions, SAGPY (Arrowhead (Pygmaea)). Conditions: preemergence, flooded paddy; for SAGPY herbicidal rating: rated three to four weeks after treatment; for herbicidal effect rating, SAGPY: rated 3-4 weeks after treatment. The format is in vivo.
The subject of data set [3] is Oryza sativa, (L.) Tebonnet. Nature of the data set: Rice tolerance to post-transplant applications under flooded paddy conditions (Example 187), ORYSAT (Rice, Tebonnet). On herbicidal effect rating ORYSAT: meaning of each grade not given here. Conditions: for ORYSAT herbicidal rating (rice tolerance): rated three to four weeks after treatment; for herbicidal effect rating ORYSAT: rated 3-4 weeks after treatment.
Data set [4] has as its system Cyperus serotinus, Rottb. Nature of the data set: Preemergence weed control under flooded paddy conditions, CYPSE (Flatsedge). The following applies: preemergence; for CYPSE herbicidal rating: rated three to four weeks after treatment; for herbicidal effect rating, CYPSE: rated 3-4 weeks after treatment. It is filed as in vivo.
For a further data set, the system named is Cyperus iria. Nature of the data set: Preemergence weed control under flooded paddy conditions, CYPIR (Rice Flatsedge). It is filed as in vivo. The following applies: preemergence, flooded paddy; for CYPIR herbicidal rating: rated three to four weeks after treatment; for herbicidal effect rating, CYPIR: rated 3-4 weeks after treatment.

Consider `Cn1c(C(F)(F)F)cc(=O)n(-c2ccc3snc(C(=O)NS(N)(=O)=O)c3c2)c1=O` [Example 472, 1,2-Benzisothiazole-3-carboxamide, 5-[3,6-dihydro-3-methyl-2,6-dioxo-4-(trifluoromethyl)-1(2H)-pyrimidinyl]-N-sulfamoyl-], for which the ECHORC herbicidal rating in data set [1] (0.0320 kg/ha) was 3.0; in data set [1] (0.0620 kg/ha), 3.0; in data set [1] (0.1250 kg/ha) it was 4.0; in data set [1] (0.2500 kg/ha), 4.0. In addition, the MOOVA herbicidal rating in data set [2] (0.0320 kg/ha) was 5.0; in data set [2] (0.0620 kg/ha), 6.0; in data set [2] (0.1250 kg/ha), 7.0; in data set [2] (0.2500 kg/ha), 7.0. Also, the SAGPY herbicidal rating with Sagittaria pygmaea, L. (0.0320 kg/ha) was 0.0; in the data set on Sagittaria pygmaea, L. (0.0620 kg/ha) it was 0.0; in the data set with Sagittaria pygmaea, L. (0.1250 kg/ha), 2.0; with Sagittaria pygmaea, L. (0.2500 kg/ha), 3.0. For the same compound, the “ORYSAT herbicidal rating (rice tolerance)” value (“ORYSAT herbicidal rating” for short) in data set [3] (0.0320 kg/ha) turned out to be 0.0; in data set [3] (0.0620 kg/ha) it was 1.0; in data set [3] (0.1250 kg/ha) it was 3.0; in data set [3] (0.2500 kg/ha), 6.0. Besides, the CYPSE herbicidal rating in data set [4] (0.0320 kg/ha) is on record as 0.0; in data set [4] (0.1250 kg/ha), 6.0; in data set [4] (0.2500 kg/ha) it was 9.0. Also, the CYPIR herbicidal rating came out at 4.0 in the data set on Cyperus iria (0.0320 kg/ha), 4.0 in the data set on Cyperus iria (0.0620 kg/ha), 5.0 with Cyperus iria (0.1250 kg/ha) and 6.0 in the data set on Cyperus iria (0.2500 kg/ha).
Take `Cn1c(C(F)(F)F)cc(=O)n(-c2ccc3snc(C(=O)NS(=O)(=O)CCc4ccccc4)c3c2)c1=O` [Example 485, 1,2-Benzisothiazole-3-carboxamide, 5-[3,6-dihydro-3-methyl-2,6-dioxo-4-(trifluoromethyl)-1(2H)-pyrimidinyl]-N-(phenethylsulfonyl)-]: the ECHORC herbicidal rating in data set [1] (0.0320 kg/ha) was determined as 4.0; in data set [1] (0.0620 kg/ha) it was 6.0; in data set [1] (0.1250 kg/ha) it was 6.0; in data set [1] (0.2500 kg/ha) it was 9.0. For the same compound, the MOOVA herbicidal rating amounted to 4.0 in data set [2] (0.0320 kg/ha), 6.0 in data set [2] (0.0620 kg/ha), 7.0 in data set [2] (0.1250 kg/ha) and 8.0 in data set [2] (0.2500 kg/ha). Besides, the SAGPY herbicidal rating is 0.0 in the data set with Sagittaria pygmaea, L. (0.0320 kg/ha); 0.0 with Sagittaria pygmaea, L. (0.0620 kg/ha); 0.0 with Sagittaria pygmaea, L. (0.1250 kg/ha); 3.0 with Sagittaria pygmaea, L. (0.2500 kg/ha). The “ORYSAT herbicidal rating” value in data set [3] (0.0320 kg/ha) came to 0.0; in data set [3] (0.0620 kg/ha), 2.0; in data set [3] (0.1250 kg/ha) it was 4.0; in data set [3] (0.2500 kg/ha), 5.0. Also, the CYPSE herbicidal rating in data set [4] (0.0320 kg/ha) and in data set [4] (0.0620 kg/ha) was 0.0 throughout. In addition, the CYPIR herbicidal rating with Cyperus iria (0.0320 kg/ha) stood at 2.0; in the data set with Cyperus iria (0.0620 kg/ha), 4.0; with Cyperus iria (0.1250 kg/ha), 5.0; with Cyperus iria (0.2500 kg/ha), 6.0.
Consider `Cn1c(C(F)(F)F)cc(=O)n(-c2ccc3snc(C(C)(C)C(=O)OCc4ccccn4)c3c2)c1=O` [Example 510, 1,2-Benzisothiazole-3-acetic acid, 5-[3,6-dihydro-3-methyl-2,6-dioxo-4-(trifluoromethyl)-1(2H)-pyrimidinyl]-alpha,alpha-dimethyl-, 2-pyridylmethyl ester], for which the ECHORC herbicidal rating in data set [1] (0.0320 kg/ha), in data set [1] (0.0620 kg/ha), in data set [1] (0.1250 kg/ha) and in data set [1] (0.2500 kg/ha) was 9.0 throughout. Moreover, the MOOVA herbicidal rating in data set [2] (0.0320 kg/ha) stood at 6.0; in data set [2] (0.0620 kg/ha), 7.0; in data set [2] (0.1250 kg/ha), 9.0; in data set [2] (0.2500 kg/ha), 9.0. The SAGPY herbicidal rating in the data set with Sagittaria pygmaea, L. (0.0320 kg/ha) worked out at 3.0; in the data set with Sagittaria pygmaea, L. (0.0620 kg/ha) it was 4.0; with Sagittaria pygmaea, L. (0.1250 kg/ha) it was 5.0; in the data set on Sagittaria pygmaea, L. (0.2500 kg/ha), 6.0. In addition, the “ORYSAT herbicidal rating” value in data set [3] (0.0320 kg/ha) came out at 0.0; in data set [3] (0.0620 kg/ha) it was 2.0; in data set [3] (0.1250 kg/ha), 4.0; in data set [3] (0.2500 kg/ha), 8.0. Further, the CYPSE herbicidal rating in data set [4] (0.0320 kg/ha) was 0.0; in data set [4] (0.0620 kg/ha), 0.0; in data set [4] (0.1250 kg/ha) it was 3.0; in data set [4] (0.2500 kg/ha), 5.0. Further, the CYPIR herbicidal rating worked out at 0.0 with Cyperus iria (0.0320 kg/ha), 3.0 in the data set with Cyperus iria (0.0620 kg/ha), 7.0 in the data set on Cyperus iria (0.1250 kg/ha) and 8.0 with Cyperus iria (0.2500 kg/ha).
In the case of `C=CC(CCCC)OC(=O)COc1ccc(C)cc1-c1nsc2ccc(-n3c(=O)cc(C(F)(F)F)n(C)c3=O)cc12` (stereo not drawn) [Example 520, Acetic acid, {{2-{5-[3,6-dihydro-3-methyl-2,6-dioxo-4-(trifluoromethyl)-1(2H)-pyrimidinyl]-1,2-benzisothiazol-3-yl}-p-tolyl}oxy}-, 1-vinylpentyl ester], the “herbicidal effect rating, ECHORC” value in data set [1] (Rate 0.0320 kg/ha) stood at 6.5; in data set [1] (Rate 0.0620 kg/ha) it was 8.0; in data set [1] (Rate 0.1250 kg/ha) it was 8.5; in data set [1] (Rate 0.2500 kg/ha), 9.0. Further, the “herbicidal effect rating, MOOVA” value in data set [2] (Rate 0.0320 kg/ha), in data set [2] (Rate 0.0620 kg/ha), in data set [2] (Rate 0.1250 kg/ha) and in data set [2] (Rate 0.2500 kg/ha) was 9.0 each time. Besides, the “herbicidal effect rating, SAGPY” value is recorded as 0.0 in the data set with Sagittaria pygmaea, L. (Rate 0.0320 kg/ha); 0.0 in the data set on Sagittaria pygmaea, L. (Rate 0.0620 kg/ha); 0.0 in the data set with Sagittaria pygmaea, L. (Rate 0.1250 kg/ha); 0.0 with Sagittaria pygmaea, L. (Rate 0.2500 kg/ha). Moreover, the “herbicidal effect rating ORYSAT” value in data set [3] (Rate 0.0320 kg/ha) was determined as 2.0; in data set [3] (Rate 0.0620 kg/ha), 3.5; in data set [3] (Rate 0.1250 kg/ha) it was 4.5; in data set [3] (Rate 0.2500 kg/ha), 3.0. For the same compound, the “herbicidal effect rating, CYPSE” value in data set [4] (Rate 0.0320 kg/ha), in data set [4] (Rate 0.0620 kg/ha), in data set [4] (Rate 0.1250 kg/ha) and in data set [4] (Rate 0.2500 kg/ha) was 0.0 throughout. Besides, the “herbicidal effect rating, CYPIR” value in the data set on Cyperus iria (Rate 0.0320 kg/ha) was determined as 0.0; with Cyperus iria (Rate 0.0620 kg/ha), 0.0; with Cyperus iria (Rate 0.1250 kg/ha), 2.0; in the data set on Cyperus iria (Rate 0.2500 kg/ha) it was 4.0.
